In one assay the target is T1, CDK2-CYCLINA (Homo sapiens, UniProt P24941).
T1 construct: purchased Millipore
Briefly: Microfluidic LabChip kinase inhibition assay, CDK2-CyclinA. The class given is biochemical. As to conditions: 50 μM ATP.

A further assay concerns the target CDK4-CYCLIND1 (Homo sapiens, UniProt P11802). Briefly: Microfluidic LabChip kinase inhibition assay, CDK4-CyclinD1. To be noted: CDK4 CyclinD1 IC50 (μM), 200 μM ATP, second value in parentheses on the next line.
The target of another assay is T2, CDK9-CYCLINT1 (Homo sapiens, UniProt P50750).
T2 construct: purchased Carna
T2 sequence (P50750 whole entry): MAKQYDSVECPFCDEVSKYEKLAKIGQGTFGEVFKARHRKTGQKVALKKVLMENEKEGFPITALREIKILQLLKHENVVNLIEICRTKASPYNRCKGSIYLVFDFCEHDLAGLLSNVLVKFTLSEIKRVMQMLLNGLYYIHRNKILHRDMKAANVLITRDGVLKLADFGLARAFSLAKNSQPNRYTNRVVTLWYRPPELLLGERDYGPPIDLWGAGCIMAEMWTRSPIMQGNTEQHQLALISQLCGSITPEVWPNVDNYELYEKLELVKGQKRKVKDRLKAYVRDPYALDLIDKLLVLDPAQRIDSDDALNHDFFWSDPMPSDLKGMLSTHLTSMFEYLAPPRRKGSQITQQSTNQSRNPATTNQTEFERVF
T2 sequence (O60563 whole entry partner): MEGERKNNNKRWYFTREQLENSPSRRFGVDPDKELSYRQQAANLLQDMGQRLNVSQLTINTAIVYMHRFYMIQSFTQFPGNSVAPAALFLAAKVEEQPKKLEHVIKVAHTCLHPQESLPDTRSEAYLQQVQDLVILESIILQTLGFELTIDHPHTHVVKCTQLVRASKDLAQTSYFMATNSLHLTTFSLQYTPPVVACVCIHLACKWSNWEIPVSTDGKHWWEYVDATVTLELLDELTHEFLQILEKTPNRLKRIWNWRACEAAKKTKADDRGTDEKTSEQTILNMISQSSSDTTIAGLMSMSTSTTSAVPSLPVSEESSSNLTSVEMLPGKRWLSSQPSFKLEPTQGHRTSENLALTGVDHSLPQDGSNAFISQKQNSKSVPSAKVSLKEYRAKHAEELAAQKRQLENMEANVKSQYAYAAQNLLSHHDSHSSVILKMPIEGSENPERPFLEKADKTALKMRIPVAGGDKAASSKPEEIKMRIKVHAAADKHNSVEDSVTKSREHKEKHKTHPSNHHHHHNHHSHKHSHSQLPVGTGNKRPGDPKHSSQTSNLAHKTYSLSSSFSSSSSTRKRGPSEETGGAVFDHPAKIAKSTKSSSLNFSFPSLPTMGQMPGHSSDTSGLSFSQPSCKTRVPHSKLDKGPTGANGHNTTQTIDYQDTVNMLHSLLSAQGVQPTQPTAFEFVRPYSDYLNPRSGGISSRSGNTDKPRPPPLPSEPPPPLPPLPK
Briefly: Microfluidic LabChip kinase inhibition assay, CDK9-CyclinT1. The class given is biochemical. To be noted: Table 3a; 10 μM ATP; read-out: CDK9 CyclinT1 IC50.

Another assay addresses CDK1/B (Homo sapiens, UniProt P06493). Briefly: Additional inhibition assay, CDK1/B. In kind it is biochemical.
A further assay has as its target CDK7 CyclinH (Homo sapiens, UniProt P50613). Briefly: Additional inhibition assay, CDK7 CyclinH. In kind it is biochemical.

Sequence of CDK1/B (P06493 whole entry): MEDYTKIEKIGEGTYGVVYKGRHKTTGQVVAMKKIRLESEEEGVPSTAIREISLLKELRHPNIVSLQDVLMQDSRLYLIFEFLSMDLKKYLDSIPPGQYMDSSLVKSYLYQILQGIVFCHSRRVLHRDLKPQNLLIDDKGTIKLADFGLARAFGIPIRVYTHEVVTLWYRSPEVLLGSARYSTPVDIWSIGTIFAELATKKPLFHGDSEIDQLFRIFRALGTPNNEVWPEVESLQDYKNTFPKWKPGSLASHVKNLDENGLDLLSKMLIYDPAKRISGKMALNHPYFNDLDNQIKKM
Sequence of CDK1/B (P14635 whole entry partner): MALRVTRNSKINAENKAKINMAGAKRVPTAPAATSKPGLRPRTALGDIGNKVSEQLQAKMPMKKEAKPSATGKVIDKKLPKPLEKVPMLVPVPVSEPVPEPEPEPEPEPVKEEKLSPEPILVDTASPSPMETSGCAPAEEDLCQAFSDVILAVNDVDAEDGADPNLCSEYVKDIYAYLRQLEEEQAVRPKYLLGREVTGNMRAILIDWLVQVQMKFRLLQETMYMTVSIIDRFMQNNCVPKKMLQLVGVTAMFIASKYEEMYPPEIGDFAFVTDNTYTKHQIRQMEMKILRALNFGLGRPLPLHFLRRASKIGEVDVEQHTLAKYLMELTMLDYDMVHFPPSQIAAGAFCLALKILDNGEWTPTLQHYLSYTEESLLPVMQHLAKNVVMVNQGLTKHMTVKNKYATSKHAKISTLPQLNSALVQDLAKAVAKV
Sequence of CDK4-CYCLIND1 (P11802 whole entry): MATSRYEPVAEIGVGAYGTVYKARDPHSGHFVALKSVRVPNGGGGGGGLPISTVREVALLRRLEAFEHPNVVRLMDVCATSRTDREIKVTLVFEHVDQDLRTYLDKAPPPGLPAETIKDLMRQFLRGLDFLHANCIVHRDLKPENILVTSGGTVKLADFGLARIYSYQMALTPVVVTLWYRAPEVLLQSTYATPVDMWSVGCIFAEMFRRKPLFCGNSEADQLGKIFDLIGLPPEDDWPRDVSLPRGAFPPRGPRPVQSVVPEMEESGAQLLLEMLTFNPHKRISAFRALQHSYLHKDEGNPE
Sequence of CDK4-CYCLIND1 (P24385 whole entry partner): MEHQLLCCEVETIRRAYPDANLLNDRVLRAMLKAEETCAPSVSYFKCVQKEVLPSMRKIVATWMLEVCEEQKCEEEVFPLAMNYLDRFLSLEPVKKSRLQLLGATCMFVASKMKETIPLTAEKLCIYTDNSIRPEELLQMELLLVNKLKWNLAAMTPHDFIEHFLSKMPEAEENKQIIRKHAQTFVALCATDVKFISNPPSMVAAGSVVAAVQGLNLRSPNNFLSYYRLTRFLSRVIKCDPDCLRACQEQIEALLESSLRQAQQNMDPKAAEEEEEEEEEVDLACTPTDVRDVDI
Sequence of CDK7 CyclinH (P50613 whole entry): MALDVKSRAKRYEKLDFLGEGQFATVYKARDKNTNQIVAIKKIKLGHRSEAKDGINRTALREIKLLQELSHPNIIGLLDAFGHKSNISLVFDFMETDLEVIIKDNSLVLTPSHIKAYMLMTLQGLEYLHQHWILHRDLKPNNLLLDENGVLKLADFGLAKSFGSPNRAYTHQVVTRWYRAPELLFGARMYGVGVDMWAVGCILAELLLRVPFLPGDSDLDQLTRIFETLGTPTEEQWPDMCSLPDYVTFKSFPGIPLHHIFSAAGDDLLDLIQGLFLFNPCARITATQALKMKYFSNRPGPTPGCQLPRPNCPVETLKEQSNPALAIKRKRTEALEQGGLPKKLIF
Sequence of CDK7 CyclinH (P51946 whole entry partner): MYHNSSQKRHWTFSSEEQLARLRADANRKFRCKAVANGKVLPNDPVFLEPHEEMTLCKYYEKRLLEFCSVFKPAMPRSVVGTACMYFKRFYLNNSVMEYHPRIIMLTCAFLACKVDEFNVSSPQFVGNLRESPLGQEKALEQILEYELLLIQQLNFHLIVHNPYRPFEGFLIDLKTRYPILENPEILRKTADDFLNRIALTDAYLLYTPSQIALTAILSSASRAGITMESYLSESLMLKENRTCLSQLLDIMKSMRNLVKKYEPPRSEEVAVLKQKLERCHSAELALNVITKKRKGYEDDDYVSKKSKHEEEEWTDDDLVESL
Sequence of CDK7 CyclinH (P51948 whole entry partner): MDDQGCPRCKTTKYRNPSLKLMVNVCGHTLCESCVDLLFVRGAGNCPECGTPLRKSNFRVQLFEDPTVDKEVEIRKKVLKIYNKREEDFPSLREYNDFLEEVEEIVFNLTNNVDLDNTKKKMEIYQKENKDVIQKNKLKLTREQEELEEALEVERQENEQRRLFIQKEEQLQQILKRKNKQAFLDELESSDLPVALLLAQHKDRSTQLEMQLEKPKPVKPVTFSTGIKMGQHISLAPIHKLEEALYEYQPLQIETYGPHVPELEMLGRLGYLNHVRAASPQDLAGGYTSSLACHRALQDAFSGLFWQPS
Protocol for CDK4-CYCLIND1: Inhibition assays were performed using microfluidic LabChip 300 Drug Discovery System from Caliper Life Sciences. […] The assay has a total volume of 10 μL consisting of 5 μL of enzyme and buffer and 5 μL of substrate and buffer. The test compounds were diluted in 100% dimethylsulfoxide (DMSO) using 3-fold dilution steps. […] Compounds were tested in a single well for each dilution and the final concentration of DMSO was maintained at 1%.
The assay buffer contained 100 mM HEPES, pH 7.5, 0.01% Triton X-100, 0.1% bovine serum albumin (BSA), 5 mM MgCl2; 1 mM dithiothreitol (DTT), 10 μM sodium orthovanadate, and 10 μM β-glycerophosphate.
The assay was conducted by adding 5 μL of enzyme, adenosine triphosphate (ATP) and buffer to an assay plate. A 100 nL aliquot of the diluted compounds were added to the plate. The assay was initiated by the addition of 5 μL of phosphoenolpyruvate substrate (PEP) in buffer. […] The reaction was terminated by the addition of EDTA. The plates were analyzed using a Caliper LabChip 3000.

Regarding `O=C1NCCC12Cc1cnc(Nc3ccc(N4CCC(N5CCOCC5)CC4)nc3)nc1N2C1CCCC1` (stereo not drawn) [Compound C133, 7′-cyclopentyl-2′-((6-(4-morpholinopiperidin-1-yl)pyridin-3-yl)amino)-5′,7′-dihydrospiro[pyrrolidine-3,6′-pyrrolo[2,3-d]pyrimidin]-2-one], the IC50 is more than 10000 nM on CDK2-CYCLINA (Table 3a); more than 10000 nM at CDK2-CYCLINA (Table 3b); 0.202 µM on CDK4-CYCLIND1 (Table 3a); 0.202 µM at CDK4-CYCLIND1 (Table 3b); 125 nM on CDK9-CYCLINT1; more than 10000 nM at CDK1/B (Table 3a). The IC50 against CDK1/B (Table 3b), on CDK7 CyclinH (Table 3a) and at CDK7 CyclinH (Table 3b) was more than 10000 nM each time.

As to `CN1CC2(C1)CN(c1ccc(Nc3ncc4c(n3)N(C3CCCC3)C3(CC(=O)NC3=O)C4)cc1F)C2` (stereo not drawn) [Compound C149, 7′-cyclopentyl-2′-((3-fluoro-4-(6-methyl-2,6-diazaspiro[3.3]heptan-2-yl)phenyl)amino)-5′,7′-dihydrospiro[pyrrolidine-3,6′-pyrrolo[2,3-d]pyrimidine]-2,5-dione], the IC50 on CDK2-CYCLINA (Table 3a) was more than 10000 nM; against CDK2-CYCLINA (Table 3b), more than 10000 nM; at CDK4-CYCLIND1 (Table 3a) it was 0.593 µM; at CDK4-CYCLIND1 (Table 3b), 0.593 µM; on CDK9-CYCLINT1 it was 85.2 nM; against CDK1/B (Table 3a) it was more than 10000 nM. The IC50 at CDK1/B (Table 3b), against CDK7 CyclinH (Table 3a) and at CDK7 CyclinH (Table 3b) was more than 10000 nM each time.

As for `CC(C)N1CC2(CN(c3ccc(Nc4ncc5c(n4)N(C4CCCC4)C4(CC(=O)NC4=O)C5)cc3)C2)C1` (stereo not drawn) [Compound C150, 7′-cyclopentyl-2′-((4-(6-isopropyl-2,6-diazaspiro[3.3]heptan-2-yl)phenyl)amino)-5′,7′-dihydrospiro[pyrrolidine-3,6′-pyrrolo[2,3-d]pyrimidine]-2,5-dione], the IC50 at CDK2-CYCLINA (Table 3a) is more than 10000 nM; at CDK2-CYCLINA (Table 3b) it was more than 10000 nM; at CDK4-CYCLIND1 (Table 3a), 0.522 µM; at CDK4-CYCLIND1 (Table 3b), 0.522 µM; at CDK9-CYCLINT1 it was 270 nM; against CDK1/B (Table 3a), more than 10000 nM. Moreover, the IC50 against CDK1/B (Table 3b), against CDK7 CyclinH (Table 3a) and at CDK7 CyclinH (Table 3b) was more than 10000 nM in each case.

As to `CN1CCC(c2ccc(Nc3ncc4c(n3)N(C3CCCC3)C3(CCNC3=O)C4)cc2)CC1` (stereo not drawn) [Compound C164, 7′-cyclopentyl-2′-((4-(1-methylpiperidin-4-yl)phenyl)amino)-5′,7′-dihydrospiro[pyrrolidine-3,6′-pyrrolo[2,3-d]pyrimidin]-2-one], the IC50 against CDK2-CYCLINA (Table 3a) was more than 10000 nM; at CDK2-CYCLINA (Table 3b) it was more than 10000 nM; at CDK4-CYCLIND1 (Table 3a), 0.167 µM; at CDK4-CYCLIND1 (Table 3b) it was 0.167 µM; on CDK9-CYCLINT1, 117 nM; against CDK1/B (Table 3a), more than 10000 nM. Further, the IC50 at CDK1/B (Table 3b), against CDK7 CyclinH (Table 3a) and against CDK7 CyclinH (Table 3b) was more than 10000 nM each time.

For `O=C1NCCC12Cc1cnc(Nc3ccc(OCCN4CCOCC4)cc3)nc1N2C1CCCC1` (stereo not drawn) [Compound C165, 7′-cyclopentyl-2′-((4-(2-morpholinoethoxy)phenyl)amino)-5′,7′-dihydrospiro[pyrrolidine-3,6′-pyrrolo[2,3-d]pyrimidin]-2-one], the IC50 is more than 10000 nM against CDK2-CYCLINA (Table 3a); more than 10000 nM against CDK2-CYCLINA (Table 3b); 0.702 µM on CDK4-CYCLIND1 (Table 3a); 0.702 µM at CDK4-CYCLIND1 (Table 3b); 91.4 nM on CDK9-CYCLINT1; more than 10000 nM against CDK1/B (Table 3a). Further, the IC50 at CDK1/B (Table 3b), on CDK7 CyclinH (Table 3a) and against CDK7 CyclinH (Table 3b) was more than 10000 nM in each case.

For the compound `Cn1cc(-c2ccc(Nc3ncc4c(n3)N(C3CCCC3)C3(CCNC3=O)C4)cc2)cn1` (stereo not drawn) [Compound C168, 7′-cyclopentyl-2′-((4-(1-methyl-1H-pyrazol-4-yl)phenyl)amino)-5′,7′-dihydrospiro[pyrrolidine-3,6′-pyrrolo[2,3-d]pyrimidin]-2-one], the IC50 against CDK2-CYCLINA (Table 3a) was more than 10000 nM; against CDK2-CYCLINA (Table 3b) it was more than 10000 nM; on CDK4-CYCLIND1 (Table 3a) it was 1.31 µM; at CDK4-CYCLIND1 (Table 3b), 1.31 µM; at CDK9-CYCLINT1 it was 23.1 nM; at CDK1/B (Table 3a) it was more than 10000 nM. In addition, the IC50 on CDK1/B (Table 3b), at CDK7 CyclinH (Table 3a) and on CDK7 CyclinH (Table 3b) was more than 10000 nM throughout.

On to `O=C1NCCC12Cc1cnc(Nc3ccc(OCCN4CCCC4)nc3)nc1N2C1CCCC1` (stereo not drawn) [Compound C170, 7′-cyclopentyl-2′-((6-(2-(pyrrolidin-1-yl)ethoxy)pyridin-3-yl)amino)-5′,7′-dihydrospiro[pyrrolidine-3,6′-pyrrolo[2,3-d]pyrimidin]-2-one], for which the IC50 is more than 10000 nM at CDK2-CYCLINA (Table 3a); more than 10000 nM against CDK2-CYCLINA (Table 3b); 0.233 µM on CDK4-CYCLIND1 (Table 3a); 0.233 µM at CDK4-CYCLIND1 (Table 3b); 28.2 nM on CDK9-CYCLINT1; more than 10000 nM against CDK1/B (Table 3a). Also, the half-maximal inhibitory concentration (IC50) against CDK1/B (Table 3b), on CDK7 CyclinH (Table 3a) and against CDK7 CyclinH (Table 3b) was more than 10000 nM each time.

Take `CN(C)[C@H]1CCN(c2ccc(Nc3ncc4c(n3)N(C3CCCC3)C3(CCNC3=O)C4)cc2F)C1` (stereo partly drawn) [Compound C173, 7′-cyclopentyl-2′-((4-((S)-3-(dimethylamino)pyrrolidin-1-yl)-3-fluorophenyl)amino)-5′,7′-dihydrospiro[pyrrolidine-3,6′-pyrrolo[2,3-d]pyrimidin]-2-one]: the IC50 against CDK2-CYCLINA (Table 3a) is more than 10000 nM; on CDK2-CYCLINA (Table 3b), more than 10000 nM; on CDK4-CYCLIND1 (Table 3a), 0.109 µM; at CDK4-CYCLIND1 (Table 3b), 0.109 µM; at CDK9-CYCLINT1, 33.6 nM; on CDK1/B (Table 3a), 8410 nM. In addition, the IC50 was 8410 nM on CDK1/B (Table 3b), more than 10000 nM at CDK7 CyclinH (Table 3a) and more than 10000 nM against CDK7 CyclinH (Table 3b).

Take `CN(C)[C@@H]1CCN(c2ccc(Nc3ncc4c(n3)N(C3CCCC3)C3(CCNC3=O)C4)cc2F)C1` (stereo partly drawn) [Compound C176, 7′-cyclopentyl-2′-((4-((R)-3-(dimethylamino)pyrrolidin-1-yl)-3-fluorophenyl)amino)-5′,7′-dihydrospiro[pyrrolidine-3,6′-pyrrolo[2,3-d]pyrimidin]-2-one]: the IC50 against CDK2-CYCLINA (Table 3a) was more than 10000 nM; against CDK2-CYCLINA (Table 3b), more than 10000 nM; at CDK4-CYCLIND1 (Table 3a), 0.142 µM; on CDK4-CYCLIND1 (Table 3b) it was 0.142 µM; on CDK9-CYCLINT1 it was 27 nM; against CDK1/B (Table 3a), 7580 nM. Further, the IC50 on CDK1/B (Table 3b) is 7580 nM; against CDK7 CyclinH (Table 3a) it was more than 10000 nM; on CDK7 CyclinH (Table 3b), more than 10000 nM.

On to `CN(C)[C@H]1CCN(C(=O)c2ccc(Nc3ncc4c(n3)N(C3CCCC3)C3(CCNC3=O)C4)cc2)C1` (stereo partly drawn) [Compound C178, 7′-cyclopentyl-2′-((4-((S)-3-(dimethylamino)pyrrolidine-1-carbonyl)phenyl)amino)-5′,7′-dihydrospiro[pyrrolidine-3,6′-pyrrolo[2,3-d]pyrimidin]-2-one], for which the IC50 against CDK2-CYCLINA (Table 3a) stood at 681 nM; on CDK2-CYCLINA (Table 3b), 681 nM; at CDK4-CYCLIND1 (Table 3a), 0.0453 µM; at CDK4-CYCLIND1 (Table 3b), 0.0453 µM; at CDK9-CYCLINT1 it was 8.65 nM; against CDK1/B (Table 3a) it was 1050 nM. Moreover, the values for the IC50 against CDK1/B (Table 3b), against CDK7 CyclinH (Table 3a) and against CDK7 CyclinH (Table 3b) were 1050 nM, more than 10000 nM and more than 10000 nM, respectively.

With `CN(C)[C@@H]1CCN(C(=O)c2ccc(Nc3ncc4c(n3)N(C3CCCC3)C3(CCNC3=O)C4)cc2)C1` (stereo partly drawn) [Compound C181, 7′-cyclopentyl-2′-((4-((R)-3-(dimethylamino)pyrrolidine-1-carbonyl)phenyl)amino)-5′,7′-dihydrospiro[pyrrolidine-3,6′-pyrrolo[2,3-d]pyrimidin]-2-one], the IC50 was 1940 nM against CDK2-CYCLINA (Table 3a); 1940 nM against CDK2-CYCLINA (Table 3b); 0.0679 µM at CDK4-CYCLIND1 (Table 3a); 0.0679 µM at CDK4-CYCLIND1 (Table 3b); 60.2 nM at CDK9-CYCLINT1; 3550 nM against CDK1/B (Table 3a). Besides, the results for the IC50 at CDK1/B (Table 3b), against CDK7 CyclinH (Table 3a) and against CDK7 CyclinH (Table 3b) were 3550 nM, more than 10000 nM and more than 10000 nM, respectively.

With `CC1CN(c2ccc(Nc3ncc4c(n3)N(C3CCCC3)C3(CCNC3=O)C4)cc2)CC(C)N1` (stereo not drawn) [Compound C207, 7′-cyclopentyl-2′-((4-(3,5-dimethylpiperazin-1-yl)phenyl)amino)-5′,7′-dihydrospiro[pyrrolidine-3,6′-pyrrolo[2,3-d]pyrimidin]-2-one], the IC50 against CDK2-CYCLINA (Table 3a) is 9570 nM; on CDK2-CYCLINA (Table 3b), 9570 nM; at CDK4-CYCLIND1 (Table 3a), 0.341 µM; at CDK4-CYCLIND1 (Table 3b), 0.341 µM; at CDK9-CYCLINT1, 148 nM; against CDK1/B (Table 3a) it was more than 10000 nM. The IC50 at CDK1/B (Table 3b), against CDK7 CyclinH (Table 3a) and against CDK7 CyclinH (Table 3b) was more than 10000 nM each time.

`CC1CN(c2ccc(Nc3ncc4c(n3)N(C3CCCC3)C3(CC(=O)NC3=O)C4)cc2)CC(C)N1` (stereo not drawn) [Compound C208, 7′-cyclopentyl-2′-((4-(3,5-dimethylpiperazin-1-yl)phenyl)amino)-5′,7′-dihydrospiro[pyrrolidine-3,6′-pyrrolo[2,3-d]pyrimidine]-2,5-dione]: the IC50 was determined as 2280 nM on CDK2-CYCLINA (Table 3a); 2280 nM against CDK2-CYCLINA (Table 3b); 0.0668 µM on CDK4-CYCLIND1 (Table 3a); 0.0668 µM at CDK4-CYCLIND1 (Table 3b); 79.9 nM at CDK9-CYCLINT1; 2020 nM against CDK1/B (Table 3a). Besides, the IC50 at CDK1/B (Table 3b) was 2020 nM; against CDK7 CyclinH (Table 3a), more than 10000 nM; at CDK7 CyclinH (Table 3b) it was more than 10000 nM.

In the case of `CC(C)c1ccc(Nc2ncc3c(n2)N(C2CCCC2)C2(CCNC2=O)C3)cc1` (stereo not drawn) [Compound C209, 7′-cyclopentyl-2′-((4-isopropylphenyl)amino)-5′,7′-dihydrospiro[pyrrolidine-3,6′-pyrrolo[2,3-d]pyrimidin]-2-one], the IC50 on CDK2-CYCLINA (Table 3a) is 5010 nM; on CDK2-CYCLINA (Table 3b), 5010 nM; on CDK4-CYCLIND1 (Table 3a), 1.38 µM; on CDK4-CYCLIND1 (Table 3b), 1.38 µM; on CDK9-CYCLINT1, 153 nM; against CDK1/B (Table 3a), more than 10000 nM. Also, the IC50 against CDK1/B (Table 3b), against CDK7 CyclinH (Table 3a) and against CDK7 CyclinH (Table 3b) was more than 10000 nM in each case.

Source of the values: patent publication US20230065740A1, “CYCLIN-DEPENDENT KINASE INHIBITORS” (SPV THERAPEUTICS INC., priority 2018, published 2023).
